Source: patent publication US20050171161A1, “Method of treatment or prevention of obesity” (priority 2002, published 2005)
Counter-ions that a name gives are not always drawn. Like-named read-outs stand apart in the source and are kept apart here.

What was measured:
[1] = target: T1, recombinant human CB1 receptor (Homo sapiens, UniProt P21554); experiment: Cannabinoid Receptor-1 (CB1) Binding Assay
T1 construct: expressed in transfected cells; host or cells: CHO cells (membranes)
Method: Cannabinoid Receptor-1 (CB1) Binding Assay.
Binding buffer contains 50 mM Tris-HCl, pH7.4, 2.5 mM EDTA, 5 mM MgCl2, 0.5 mg/ml fatty acid free bovine serum albumin and protease inhibitors (Cat#P8340, from Sigma). To initiate the binding reaction, 5 μl of radioligand solution is added, the mixture is incubated with gentle shaking on a shaker for 1.5 hours at 30° C. The binding is terminated by using 96-well harvester and filtering through GF/C filter presoaked in 0.05% polyethylenimine. The bound radiolabel is quantitated using scintillation counter.

[2] = target: T2, recombinant human CB2 receptor (Homo sapiens, UniProt P34972); experiment: CB2 Receptor Binding Assay
T2 construct: expressed in transfected cells; host or cells: CHO cells (membranes)
Method: CB2 Receptor Binding Assay
The binding assay for CB2 receptor is conducted similarly, with recombinant human CB2 receptor expressed in CHO cells.

[3] = target: Potassium channel (Ikr) (Homo sapiens, UniProt Q12809); experiment: Potassium channel (Ikr) binding
Source text: (§1) Ion channel assays have also been reported in the literature. The following are representative.

[4] = test system: Calcium channel; experiment: Calcium channel binding
Source text: as §1

[5] = test system: Sodium channel site 2; experiment: Sodium channel site 2 binding
Source text: as §1

[6] = target: T3, 11β-HSD1 enzyme (hHSD1) (Homo sapiens, UniProt P28845); experiment: 11β-HSD1 inhibition, Scintillation Proximity Assay; format: biochemical; conditions: SPA, tritiated cortisone, NADPH
T3 construct: expressed in transfected cells; host or cells: CHO transfectants (microsomes)
Method: 11β-HSD1 Inhibition Constants
(§2) In vitro enzymatic activity is assessed for test compounds via a Scintillation Proximity Assay (SPA). Tritiated-cortisone substrate, NADPH cofactor and titrated compound are incubated with 11β-HSD1 enzyme at 37° C. to allow conversion to cortisol to progress. Following this incubation, protein A coated SPA beads, pre-blended with anti-cortisol monoclonal antibody and a non-specific 11β-HSD inhibitor, are added to each well. The mixture is shaken at 15° C. and then read on a liquid scintillation counter suitable for 96 well plates.
(§3) Percent inhibition is calculated relative to a non-inhibited control well, and IC50 curves are generated.
(§4) This assay is similarly applied to 11β-HSD2. Tritiated cortisol and NAD are used as the substrate and cofactor, respectively. 40 μL of substrate (25 nM ^3H-Cortisone+1.25 mM NADPH in 50 mM HEPES Buffer, pH 7.4) are added to designated wells on a 96 well plate. Solid compound is dissolved in DMSO at 10 mM followed by a subsequent 50 fold dilution in DMSO. The diluted material is then titrated 4 fold, seven times. 1 μL of each titrated compound is then added in duplicate to the substrate. To start the reaction, 10 μL of 11β-HSD1 microsome from CHO transfectants is added to each well at the appropriate concentration to yield approximately 10% conversion of the starting material. For ultimate calculation of percent inhibition, a series of wells is added that represent the assay minimum and maximum: one set that contains substrate without compound or enzyme (background), and another set that contains substrate and enzyme without any compound (maximum signal). The plates are spun briefly at a low speed in a centrifuge to pool the reagents, sealed with an adhesive strip, mixed gently, and incubated at 37° C. for 2 hours. After incubation, 45 μL of SPA beads, pre-suspended with anti-cortisol monoclonal antibody and non-specific 11β-HSD inhibitor, are added to each well. The plates are resealed and shaken gently for greater than 1.5 hours at 15° C. Data is collected on a plate based liquid scintillation counter such as a Topcount. To control for inhibition of anti-cortisol antibody/cortisol binding, substrate spiked with 1.25 nM [3]H cortisol is added to designated single wells. 1 μL of 200 μM compound is added to each of these wells, along with 10 μL of buffer instead of enzyme. Any calculated inhibition is due to compound interfering with the cortisol binding to the antibody on the SPA beads.

[7] = target: T4, 11β-HSD2 (hHSD2) (Homo sapiens, UniProt P80365); experiment: 11β-HSD2 inhibition, Scintillation Proximity Assay; format: biochemical; conditions: SPA, tritiated cortisol, NAD
T4 sequence (P80365 1-405): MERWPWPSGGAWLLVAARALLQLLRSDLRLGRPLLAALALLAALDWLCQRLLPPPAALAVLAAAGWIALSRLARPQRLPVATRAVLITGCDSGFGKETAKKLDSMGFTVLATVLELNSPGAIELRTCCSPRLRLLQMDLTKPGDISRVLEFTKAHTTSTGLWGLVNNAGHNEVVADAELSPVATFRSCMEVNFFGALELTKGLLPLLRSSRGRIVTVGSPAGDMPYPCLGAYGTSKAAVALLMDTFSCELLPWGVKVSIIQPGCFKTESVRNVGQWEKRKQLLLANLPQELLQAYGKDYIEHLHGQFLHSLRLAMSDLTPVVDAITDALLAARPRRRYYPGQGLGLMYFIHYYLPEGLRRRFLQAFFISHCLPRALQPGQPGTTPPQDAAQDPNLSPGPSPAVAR
Method: as §2, §3, §4

[8] = CHO cell membranes, [3H]CP-55940 0.6 nM, read-out: hCB1 IC50

T1 sequence (P21554 whole entry): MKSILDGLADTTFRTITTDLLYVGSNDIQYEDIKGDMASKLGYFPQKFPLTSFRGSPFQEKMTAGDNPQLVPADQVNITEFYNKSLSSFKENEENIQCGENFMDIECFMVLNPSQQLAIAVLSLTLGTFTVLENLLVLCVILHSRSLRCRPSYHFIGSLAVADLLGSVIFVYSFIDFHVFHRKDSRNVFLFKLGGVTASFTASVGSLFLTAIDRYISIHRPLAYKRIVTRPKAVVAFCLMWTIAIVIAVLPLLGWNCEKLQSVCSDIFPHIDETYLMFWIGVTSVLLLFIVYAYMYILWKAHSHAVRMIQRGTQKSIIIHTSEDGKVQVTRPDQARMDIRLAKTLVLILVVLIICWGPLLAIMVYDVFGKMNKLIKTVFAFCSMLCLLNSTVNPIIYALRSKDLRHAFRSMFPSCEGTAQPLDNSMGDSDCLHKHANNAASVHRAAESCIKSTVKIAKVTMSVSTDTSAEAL
T2 sequence (P34972 whole entry): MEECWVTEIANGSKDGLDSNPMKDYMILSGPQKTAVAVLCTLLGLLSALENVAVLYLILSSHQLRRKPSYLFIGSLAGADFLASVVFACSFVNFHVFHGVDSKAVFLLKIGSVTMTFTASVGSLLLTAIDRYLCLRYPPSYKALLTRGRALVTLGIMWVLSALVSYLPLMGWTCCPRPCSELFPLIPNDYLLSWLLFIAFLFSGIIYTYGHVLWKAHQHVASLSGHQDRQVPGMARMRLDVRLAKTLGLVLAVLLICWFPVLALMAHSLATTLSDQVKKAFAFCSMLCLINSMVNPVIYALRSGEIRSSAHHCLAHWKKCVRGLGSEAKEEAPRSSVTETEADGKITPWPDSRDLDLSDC
T3 sequence (P28845 whole entry): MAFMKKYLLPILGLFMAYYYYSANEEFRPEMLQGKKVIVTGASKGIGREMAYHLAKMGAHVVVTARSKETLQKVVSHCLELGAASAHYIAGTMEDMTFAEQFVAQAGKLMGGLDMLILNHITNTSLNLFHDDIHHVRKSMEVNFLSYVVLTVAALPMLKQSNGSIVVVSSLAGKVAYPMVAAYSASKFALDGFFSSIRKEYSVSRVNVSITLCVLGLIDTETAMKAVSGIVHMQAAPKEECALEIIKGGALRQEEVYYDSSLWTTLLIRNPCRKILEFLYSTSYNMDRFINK
Sequence of Potassium channel (Ikr) (Q12809 whole entry): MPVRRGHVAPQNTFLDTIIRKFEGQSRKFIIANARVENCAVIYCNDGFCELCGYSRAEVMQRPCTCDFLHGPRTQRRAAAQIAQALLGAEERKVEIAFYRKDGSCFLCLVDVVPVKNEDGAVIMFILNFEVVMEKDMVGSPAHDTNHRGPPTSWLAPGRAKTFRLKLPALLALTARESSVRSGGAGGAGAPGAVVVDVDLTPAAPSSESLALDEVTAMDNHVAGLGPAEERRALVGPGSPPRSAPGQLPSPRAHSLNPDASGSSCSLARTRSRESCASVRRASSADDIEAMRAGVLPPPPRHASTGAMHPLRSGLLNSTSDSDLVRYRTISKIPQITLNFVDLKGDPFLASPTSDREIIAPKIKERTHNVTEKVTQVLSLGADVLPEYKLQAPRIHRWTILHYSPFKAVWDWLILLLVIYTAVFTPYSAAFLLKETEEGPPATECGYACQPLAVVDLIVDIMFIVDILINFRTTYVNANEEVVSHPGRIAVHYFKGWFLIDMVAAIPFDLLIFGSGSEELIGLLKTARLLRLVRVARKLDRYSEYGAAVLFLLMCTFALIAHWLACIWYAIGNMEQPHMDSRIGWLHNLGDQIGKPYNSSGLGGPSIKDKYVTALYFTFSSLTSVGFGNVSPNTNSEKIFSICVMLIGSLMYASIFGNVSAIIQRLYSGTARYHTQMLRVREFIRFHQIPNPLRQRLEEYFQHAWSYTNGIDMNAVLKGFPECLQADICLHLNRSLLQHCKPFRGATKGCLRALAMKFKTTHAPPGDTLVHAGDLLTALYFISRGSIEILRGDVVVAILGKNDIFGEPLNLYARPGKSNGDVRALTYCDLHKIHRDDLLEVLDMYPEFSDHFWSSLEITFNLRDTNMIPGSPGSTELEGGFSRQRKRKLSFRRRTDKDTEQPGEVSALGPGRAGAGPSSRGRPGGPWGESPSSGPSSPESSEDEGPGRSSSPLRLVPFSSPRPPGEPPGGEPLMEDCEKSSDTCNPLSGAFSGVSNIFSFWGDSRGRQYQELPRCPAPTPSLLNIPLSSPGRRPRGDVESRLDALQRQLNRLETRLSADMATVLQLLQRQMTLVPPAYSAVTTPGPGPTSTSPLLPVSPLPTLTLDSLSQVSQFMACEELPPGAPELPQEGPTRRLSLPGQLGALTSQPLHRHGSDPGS

| SMILES | IC50 ([2]; CHO cells, read-out: hCB2 IC50) | IC50 [6] | IC50 [7] | also measured |
| --- | --- | --- | --- | --- |
| Cn1c(C(=O)NN2CCCCC2)nc(-c2ccc(Cl)cc2Cl)c1-c1ccc(Cl)cc1 [Compound 2, N-(Piperidin-1-yl)-4-(2,4-dichlorophenyl)-5-(4-chlorophenyl)-1-methylimidazole-2-carboxamide] | 100 to 1000 nM |  |  | IC50 [1, 8]: < 10 nM; Ion Channel Values K [3]: 1.3 µM; Ion Channel Values Ca [4]: 1200 nM; Ion Channel Values Na [5]: 6 µM |
| Cc1ccc(-c2nc(C(=O)NN3CCCCC3)n(C)c2-c2ccc(C)cc2)cc1 [Compound 3, N-(Piperidin-1-yl)-4,5-di-(4-methylphenyl)-1-methylimidazole-2-carboxamide] | > 1000 nM |  |  |  |
| Cc1ccc(-c2nc(C(=O)NC3CCCCC3)n(C)c2-c2ccc(C)cc2)cc1 [Compound 4, N-Cyclohexyl-4,5-di-(4-methylphenyl)-1-methylimidazole-2-carboxamide] | > 1000 nM |  |  | IC50 [1]: 100 to 1000 nM |
| Cn1c(C(=O)NC2CCCCC2)nc(-c2ccc(Cl)cc2Cl)c1-c1ccc(Cl)cc1 [Compound 5, N-(Cyclohexyl)-4-(2,4-dichlorophenyl)-5-(4-chlorophenyl)-1-methylimidazole-2-carboxamide] |  |  |  | IC50 [1]: < 10 nM; IC50 [2]: 100 to 1000 nM; Ion Channel Values K [3]: 5.6 µM; Ion Channel Values Ca [4]: 4600 nM; Ion Channel Values Na [5]: 4 µM |
| Cn1c(C(=O)Nc2ccccc2)nc(-c2ccc(Cl)cc2Cl)c1-c1ccc(Cl)cc1 [Compound 6, N-(Phenyl)-4-(2,4-dichlorophenyl)-5-(4-chlorophenyl)-1-methylimidazole-2-carboxamide] | 100 to 1000 nM |  |  | IC50 [1, 8]: 10 to 100 nM |
| CC12CC3(C)CC(C)(C1)CC(Cc1nnc4n1CCCCC4)(C2)C3 [Compound 7, 3-[(3,5,7-trimethyl-1-adamantyl)methyl]-6,7,8,9-tetrahydro-5H-[1,2,4]triazolo[4,3-a]azepine Trifluoroacetate Salt] |  | 10 to 100 nM | > 1000 nM |  |
| CCSc1nnc(C23CC4CC(CC(C4)C2)C3)n1CC [Compound 8, 3-(1-adamantyl)-4-ethyl-5-(ethylthio)-4H-1,2,4-triazole] |  | 10 to 100 nM | > 1000 nM |  |
| COc1cc(-c2nnc(C34CC5CC(CC(C5)C3)C4)n2C)cc(OC)c1OC [Compound 9, 3-(1-adamantyl)-5-(3,4,5-trimethoxyphenyl)-4-methyl-4H-1,2,4-triazole] |  | < 10 nM | < 10 nM |  |
| C1CCCCc2nnc(C34CC5CC(CC(C5)C3)C4)n2CCCC1 [Compound 10, 3-adamantanyl-4,5,6,7,8,9,10,11,12,3a-decahydro-1,2,4-triazolo[4,3-a][11]annulene] |  | 100 to 1000 nM | > 1000 nM |  |
